Experimental data from ChEMBL document CHEMBL5726283, “Cycloalkyl nitrile pyrazolo pyridones as Janus kinase inhibitors” (2017).

Legend:
[1] = target: Tyrosine-protein kinase JAK1 (Homo sapiens, UniProt P23458); assay: Biochemical HTRF Assay Protocol: The ability of compounds to inhibit the activity of JAK1, JAK2, JAK3, and Tyk2 was measured using a recombinant purified GST-tagged catalytic domain for each enzyme (Invitrogen JAK1 #M4290, JAK2 #M4290, JAK3 #M4290, Tyk2 #M4290) in an HTRF format biochemical assay. The reactions employed a common peptide substrate, LCB-[…]-NH2 (in-house). The basic assay protocol is as follows: First, 250 nL of diluted compounds in DMSO were dispensed into the wells of a dry 384-well Black plate (Greiner #781076) using a Labcyte Echo 555 acoustic dispenser. Subsequent reagent additions employed an Agilent Bravo. Next, 18 μL of 1.11× enzyme and 1.11× substrate in 1× assay buffer (Invitrogen kinase buffer #PV3189, 2 mM DTT, 0.05% BSA) were added to the wells and shaken and then preincubated for 30 minutes at room temperature to allow compound binding to equilibrate. After equilibration, 2 μL of 10×ATP in 1× assay buffer was added to initiate the kinase reaction and the plates were shaken and then incubated at room temperature for 120 minutes. At the end of the incubation, 20 μL of 2× stop buffer (streptavidin-Dylight 650 (Thermo #84547B/100 mL), Eu-tagged pY20 antibody (Perkin Elmer #AD0067), EDTA, HEPES, and Triton) was added to quench the reaction. Plates were shaken and centrifuged and then incubated 60 minutes at room temperature and then read on a Perkin Elmer Envision (λex=337 nm, λem=665 and 615 nm, TRF delay time=20 μs). HTRF signal=10,000*665 nm reading/615 nm reading. After normalization to untreated controls, the percent inhibition of the HTRF signal at each compound concentration was calculated.
[2] = target: Tyrosine-protein kinase JAK2 (Homo sapiens, UniProt O60674); assay: Biochemical HTRF Assay Protocol: The ability of compounds to inhibit the activity of JAK1, JAK2, JAK3, and Tyk2 was measured using a recombinant purified GST-tagged catalytic domain for each enzyme (Invitrogen JAK1 #M4290, JAK2 #M4290, JAK3 #M4290, Tyk2 #M4290) in an HTRF format biochemical assay. […] Subsequent reagent additions employed an Agilent Bravo. […] After equilibration, 2 μL of 10×ATP in 1× assay buffer was added to initiate the kinase reaction and the plates were shaken and then incubated at room temperature for 120 minutes. […] After normalization to untreated controls, the percent inhibition of the HTRF signal at each compound concentration was calculated.
Tyrosine-protein kinase JAK2, sequence (O60674 whole entry, the tested form may be a part): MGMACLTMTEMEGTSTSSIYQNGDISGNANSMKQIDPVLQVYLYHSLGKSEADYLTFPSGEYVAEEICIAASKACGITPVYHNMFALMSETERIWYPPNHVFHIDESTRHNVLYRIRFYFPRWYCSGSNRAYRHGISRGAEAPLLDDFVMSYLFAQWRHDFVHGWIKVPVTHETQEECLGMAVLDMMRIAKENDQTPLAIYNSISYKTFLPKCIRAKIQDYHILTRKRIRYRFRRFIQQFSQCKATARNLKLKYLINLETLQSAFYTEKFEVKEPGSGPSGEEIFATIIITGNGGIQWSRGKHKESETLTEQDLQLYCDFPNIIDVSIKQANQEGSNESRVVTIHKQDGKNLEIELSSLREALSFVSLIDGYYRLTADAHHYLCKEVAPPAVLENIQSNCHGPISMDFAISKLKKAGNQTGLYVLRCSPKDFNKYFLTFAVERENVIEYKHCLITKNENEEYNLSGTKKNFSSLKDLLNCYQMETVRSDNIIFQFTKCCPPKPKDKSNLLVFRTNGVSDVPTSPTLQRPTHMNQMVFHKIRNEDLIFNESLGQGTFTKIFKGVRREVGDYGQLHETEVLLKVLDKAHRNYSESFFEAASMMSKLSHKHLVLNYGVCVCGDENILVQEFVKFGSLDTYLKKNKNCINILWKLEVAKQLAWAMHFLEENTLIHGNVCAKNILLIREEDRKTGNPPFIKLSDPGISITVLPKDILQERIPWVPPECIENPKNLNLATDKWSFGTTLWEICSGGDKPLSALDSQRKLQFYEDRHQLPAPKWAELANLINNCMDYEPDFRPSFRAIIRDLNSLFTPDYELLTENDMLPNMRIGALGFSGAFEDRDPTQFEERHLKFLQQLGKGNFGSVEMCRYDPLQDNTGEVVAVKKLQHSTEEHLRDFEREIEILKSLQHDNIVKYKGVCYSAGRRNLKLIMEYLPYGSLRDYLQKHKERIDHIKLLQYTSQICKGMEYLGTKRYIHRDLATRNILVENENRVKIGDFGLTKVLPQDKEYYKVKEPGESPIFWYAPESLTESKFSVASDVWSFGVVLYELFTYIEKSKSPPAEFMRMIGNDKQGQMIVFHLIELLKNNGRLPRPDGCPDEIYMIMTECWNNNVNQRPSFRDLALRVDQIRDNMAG

Tyrosine-protein kinase JAK1, sequence (P23458 whole entry, the tested form may be a part): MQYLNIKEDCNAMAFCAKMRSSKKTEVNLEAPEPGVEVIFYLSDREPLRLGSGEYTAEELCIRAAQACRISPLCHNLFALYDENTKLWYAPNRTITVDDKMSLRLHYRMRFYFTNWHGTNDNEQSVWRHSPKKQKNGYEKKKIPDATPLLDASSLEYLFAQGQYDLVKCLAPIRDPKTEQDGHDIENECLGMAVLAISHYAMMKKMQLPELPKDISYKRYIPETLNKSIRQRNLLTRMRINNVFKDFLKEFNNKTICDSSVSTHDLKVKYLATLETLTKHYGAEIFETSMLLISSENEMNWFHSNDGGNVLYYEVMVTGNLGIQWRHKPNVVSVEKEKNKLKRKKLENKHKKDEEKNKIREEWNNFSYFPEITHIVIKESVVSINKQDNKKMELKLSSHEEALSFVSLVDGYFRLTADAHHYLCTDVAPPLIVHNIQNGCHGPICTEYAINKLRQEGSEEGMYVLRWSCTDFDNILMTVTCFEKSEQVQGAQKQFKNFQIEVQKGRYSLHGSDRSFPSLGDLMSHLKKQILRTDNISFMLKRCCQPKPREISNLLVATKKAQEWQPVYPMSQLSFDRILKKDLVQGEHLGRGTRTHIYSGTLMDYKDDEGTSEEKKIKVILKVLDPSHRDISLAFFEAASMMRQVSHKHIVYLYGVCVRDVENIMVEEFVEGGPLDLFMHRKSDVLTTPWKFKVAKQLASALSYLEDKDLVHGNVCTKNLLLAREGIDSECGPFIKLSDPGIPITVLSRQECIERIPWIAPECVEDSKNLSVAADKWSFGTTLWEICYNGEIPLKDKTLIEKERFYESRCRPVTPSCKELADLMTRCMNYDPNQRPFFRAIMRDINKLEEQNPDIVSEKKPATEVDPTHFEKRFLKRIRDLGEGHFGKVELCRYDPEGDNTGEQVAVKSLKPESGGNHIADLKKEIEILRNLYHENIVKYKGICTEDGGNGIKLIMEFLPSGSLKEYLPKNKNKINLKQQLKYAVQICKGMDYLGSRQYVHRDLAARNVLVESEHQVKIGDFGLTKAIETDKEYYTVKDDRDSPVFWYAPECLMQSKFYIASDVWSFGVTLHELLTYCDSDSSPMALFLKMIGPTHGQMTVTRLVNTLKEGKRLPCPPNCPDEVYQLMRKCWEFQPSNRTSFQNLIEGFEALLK

IC50 [1]	IC50 [2]	Compound
4.7 nM	–	CS(=O)(=O)c1ccc(Nc2nn([C@@H]3CCC[C@H]3C#N)c3cc[nH]c(=O)c23)cc1
0.32 nM	0.37 nM	Cc1cc(Nc2nn([C@H]3CCCC[C@@H]3C#N)c3cc[nH]c(=O)c23)ccc1C(=O)N1CCC(F)(F)CC1
0.11 nM	0.3 nM	CN(C)S(=O)(=O)c1ccc(Nc2nn([C@H]3CCC[C@@H]3C#N)c3cc[nH]c(=O)c23)cc1
0.48 nM	–	N#C[C@H]1C[C@H](O)CC[C@@H]1n1nc(Nc2ccc(C(F)(F)F)cc2)c2c(=O)[nH]ccc21
